Measured values as given in the NIST ThermoML archive (doi:10.1021/je600519p).

Assay: xn = mol fraction of the nth substance listed
Settings: 101 kPa, Liquid

CC(=O)c1ccccc1 [acetophenone] + CCOC(=O)OCC
Settings	mass density [kg/m3]	speed of sound [m/s]	viscosity [mPa·s]
293.15 K, x2 = 0.0511	1025.19	1443	1.754
293.15 K, x2 = 0.1014	1023.01	1405	1.688
293.15 K, x2 = 0.1501	1020.69	1377	1.625
293.15 K, x2 = 0.1996	1018.39	1347	1.564
293.15 K, x2 = 0.2465	1016.19	1322	1.507
293.15 K, x2 = 0.3041	1013.29	1297	1.441
293.15 K, x2 = 0.3467	1011.15	1280	1.391
293.15 K, x2 = 0.4001	1008.46	1265	1.329
293.15 K, x2 = 0.4507	1005.89	1251	1.276
293.15 K, x2 = 0.4888	1003.9	1242	1.238
293.15 K, x2 = 0.5506	1000.67	1231	1.174
293.15 K, x2 = 0.6038	997.77	1222	1.122
293.15 K, x2 = 0.6498	995.25	1218	1.079
293.15 K, x2 = 0.7104	991.92	1215	1.025
293.15 K, x2 = 0.7513	989.53	1213	0.989
293.15 K, x2 = 0.8078	986.29	1210	0.941
293.15 K, x2 = 0.8522	983.66	1208	0.906
293.15 K, x2 = 0.8993	980.83	1207	0.869
293.15 K, x2 = 0.9488	977.82	1206	0.833
303.15 K, x2 = 0.0511	1016.4	1408	1.455
303.15 K, x2 = 0.1014	1014.09	1369	1.402
303.15 K, x2 = 0.1501	1011.77	1339	1.352
303.15 K, x2 = 0.1996	1009.35	1312	1.302
303.15 K, x2 = 0.2465	1007.04	1290	1.257
303.15 K, x2 = 0.3041	1004.02	1265	1.203
303.15 K, x2 = 0.3467	1001.78	1249	1.165
303.15 K, x2 = 0.4001	998.99	1232	1.118
303.15 K, x2 = 0.4507	996.27	1217	1.075
303.15 K, x2 = 0.4888	994.18	1208	1.042
303.15 K, x2 = 0.5506	990.73	1198	0.993
303.15 K, x2 = 0.6038	987.73	1194	0.952
303.15 K, x2 = 0.6498	985.06	1193	0.918
303.15 K, x2 = 0.7104	981.54	1192	0.875
303.15 K, x2 = 0.7513	979.05	1191	0.848
303.15 K, x2 = 0.8078	975.68	1190	0.811
303.15 K, x2 = 0.8522	972.91	1189	0.784
303.15 K, x2 = 0.8993	969.91	1188	0.755
303.15 K, x2 = 0.9488	966.78	1187	0.727
313.15 K, x2 = 0.0511	1007.58	1365	1.232
313.15 K, x2 = 0.1014	1005.19	1326	1.188
313.15 K, x2 = 0.1501	1002.73	1292	1.148
313.15 K, x2 = 0.1996	1000.2	1263	1.11
313.15 K, x2 = 0.2465	997.78	1238	1.073
313.15 K, x2 = 0.3041	994.63	1212	1.03
313.15 K, x2 = 0.3467	992.31	1196	0.998
313.15 K, x2 = 0.4001	989.35	1180	0.961
313.15 K, x2 = 0.4507	986.55	1168	0.925
313.15 K, x2 = 0.4888	984.35	1160	0.9
313.15 K, x2 = 0.5506	980.71	1153	0.86
313.15 K, x2 = 0.6038	977.48	1152	0.827
313.15 K, x2 = 0.6498	974.69	1151	0.799
313.15 K, x2 = 0.7104	971.04	1150	0.765
313.15 K, x2 = 0.7513	968.47	1149	0.742
313.15 K, x2 = 0.8078	964.89	1148	0.711
313.15 K, x2 = 0.8522	961.99	1147	0.688
313.15 K, x2 = 0.8993	958.99	1146	0.665
313.15 K, x2 = 0.9488	955.63	1145	0.641
323.15 K, x2 = 0.0511	998.79	1305	1.057
323.15 K, x2 = 0.1014	996.27	1265	1.023
323.15 K, x2 = 0.1501	993.68	1234	0.991
323.15 K, x2 = 0.1996	991.08	1208	0.959
323.15 K, x2 = 0.2465	988.56	1185	0.929
323.15 K, x2 = 0.3041	985.24	1164	0.893
323.15 K, x2 = 0.3467	982.8	1151	0.868
323.15 K, x2 = 0.4001	979.74	1137	0.837
323.15 K, x2 = 0.4507	976.77	1126	0.809
323.15 K, x2 = 0.4888	974.49	1121	0.787
323.15 K, x2 = 0.5506	970.76	1118	0.755
323.15 K, x2 = 0.6038	967.47	1117	0.727
323.15 K, x2 = 0.6498	964.54	1116	0.704
323.15 K, x2 = 0.7104	960.63	1115	0.676
323.15 K, x2 = 0.7513	957.86	1114	0.656
323.15 K, x2 = 0.8078	954.13	1113	0.631
323.15 K, x2 = 0.8522	951.07	1112	0.612
323.15 K, x2 = 0.8993	947.76	1111	0.592
323.15 K, x2 = 0.9488	944.32	1110	0.573
